Results published in patent US9040527B2, “Pyrimidinediamine kinase inhibitors” (Rigel Pharmaceuticals, Inc., priority 2008, dated 2015).

Experiments:
PLK1 [1] = target: T1, PLK1 (Homo sapiens, UniProt P53350); test: In vitro PLK1 ELISA assay (biochemical); parameters: purchased Cell Signalling 7728
Method in brief: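 Commercial PLK1 phosphorylates neutravidin-captured biotinylated CHK2 peptide for 45 min at room temperature in HEPES pH 7.2 with Mg2+/Mn2+/DTT, compounds at 10 μM to 0.005 μM. Phospho-CHK2(T68) antibody plus HRP secondary gives chemiluminescent read-out used for IC50.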

PLK1 [2] = target: T1, PLK1; test: Cellular PLK1 assay in K562 cells overexpressing CDC25C; assay type: cell-based; parameters: endogenous in cells; host or cells: K562 (human chronic myelogenous leukemia) overexpressing CDC25C, nocodazole-arrested; settings: nocodazole arrested, cdc25c p-Ser198 readout
Method in brief: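 K562 cells overexpressing CDC25C were arrested with 333 nM nocodazole for 18 h at 37 °C, then exposed to compound at 8 points from 10 μM to 0.005 μM in duplicate for 120 min. After fixation and permeabilization, cells were stained for cdc25c pSer198 with a PE secondary and read by flow cytometry, 10,000 cells per well.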

[3] = ELISA, CHK2-derived peptide substrate, read-out: PLK1 IC50 (μM) biochemical assay
[4] = read-out: IC50 in biochemical in vitro PLK1 ELISA assay (less than 10 μM)
[5] = read-out: IC50 in biochemical ELISA assay (less than 0.01 μM)

T1 sequence (P53350 whole entry): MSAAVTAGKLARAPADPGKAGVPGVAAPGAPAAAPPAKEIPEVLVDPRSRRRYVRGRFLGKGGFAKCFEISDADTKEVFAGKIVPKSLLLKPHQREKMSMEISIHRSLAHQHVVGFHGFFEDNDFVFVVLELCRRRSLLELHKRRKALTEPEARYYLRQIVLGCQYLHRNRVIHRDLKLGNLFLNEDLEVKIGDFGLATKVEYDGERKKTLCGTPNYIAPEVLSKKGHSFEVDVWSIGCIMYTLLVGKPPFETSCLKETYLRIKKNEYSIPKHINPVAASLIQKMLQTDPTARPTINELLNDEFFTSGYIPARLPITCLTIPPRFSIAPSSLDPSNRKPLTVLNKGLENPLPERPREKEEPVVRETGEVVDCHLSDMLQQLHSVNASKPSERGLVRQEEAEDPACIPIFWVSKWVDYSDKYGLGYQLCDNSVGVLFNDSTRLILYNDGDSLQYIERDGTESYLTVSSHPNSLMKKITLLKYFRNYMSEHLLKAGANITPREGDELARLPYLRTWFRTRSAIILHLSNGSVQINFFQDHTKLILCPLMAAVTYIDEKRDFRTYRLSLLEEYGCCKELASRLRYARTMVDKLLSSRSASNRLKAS

Row | SMILES | IC50 (PLK1 [1]; [3]) [µM] | IC50 (PLK1 [1]; [4]) [µM] | IC50 (PLK1 [2]) [µM] | IC50 (PLK1 [1]; [5]) [µM]
1 | COc1cnc(Nc2cccc(N3CCN(C)CC3)c2)nc1Nc1ccc2c(n1)NC(=O)CO2 [compound 56, 6-(5-methoxy-2-(3-(4-methylpiperazin-1-yl)phenylamino)pyrimidin-4-ylamino)-2H-pyrido[3,2-b][1,4]oxazin-3(4H)-one] | < 0.5 | < 10 | ≥ 10 | –
2 | Cc1ccc(Nc2ncc(F)c(Nc3ccc4c(n3)NCCO4)n2)cc1N1CCN(C)CC1 [compound 22, N4-(3,4-dihydro-2H-pyrido[3,2-b][1,4]oxazin-6-yl)-5-fluoro-N2-(4-methyl-3-(4-methylpiperazin-1-yl)phenyl)pyrimidine-2,4-diamine] | ≥ 10 | – | ≥ 10 | –
3 | CN1CCN(c2cc(Nc3ncc(F)c(Nc4ccc5c(n4)NCCO5)n3)cc(C3CC3)c2)CC1 [compound 48, N2-(3-cyclopropyl-5-(4-methylpiperazin-1-yl)phenyl)-N4-(3,4-dihydro-2H-pyrido[3,2-b][1,4]oxazin-6-yl)-5-fluoropyrimidine-2,4-diamine] | < 0.5 | < 10 | < 0.5 | < 0.01
4 | Cc1cc(Nc2ncc(F)c(Nc3ccc4c(n3)N(CC3CCC3)C(=O)CO4)n2)ccc1N1CCN(C)CC1 [compound 112, 4-(cyclobutylmethyl)-6-(5-fluoro-2-(3-methyl-4-(4-methylpiperazin-1-yl)phenylamino)pyrimidin-4-ylamino)-2H-pyrido[3,2-b][1,4]oxazin-3(4H)-one] | ≥ 10 | – | ≥ 10 | –
5 | Cc1cc(Nc2ncc(C)c(Nc3ccc4c(n3)N(CC3CCCCC3)C(=O)CO4)n2)ccc1N1CCN(C)CC1 [compound 119, 4-(cyclohexylmethyl)-6-(5-methyl-2-(3-methyl-4-(4-methylpiperazin-1-yl)phenylamino)pyrimidin-4-ylamino)-2H-pyrido[3,2-b][1,4]oxazin-3(4H)-one] | ≥ 10 | – | ≥ 10 | –
6 | CCN1C(=O)COc2ccc(Nc3nc(Nc4ccc(N5CCN(C)CC5)c(C)c4)ncc3C)cc21 [compound 191, 4-ethyl-6-(5-methyl-2-(3-methyl-4-(4-methylpiperazin-1-yl)phenylamino)pyrimidin-4-ylamino)-2H-benzo[b][1,4]oxazin-3(4H)-one] | 5 to 10 | < 10 | ≥ 10 | –
7 | CCN1CCN(c2ccc(Nc3ncc(Cl)c(Nc4ccc5c(c4)N(CC)C(=O)CO5)n3)cc2)CC1 [compound 183, 6-(5-chloro-2-(4-(4-ethylpiperazin-1-yl)phenylamino)pyrimidin-4-ylamino)-4-ethyl-2H-benzo[b][1,4]oxazin-3(4H)-one] | 0.5 to 5 | < 10 | 0.5 to 5 | –
8 | CC(C)Oc1cc(Nc2ncc(F)c(Nc3ccc4c(n3)NC(=O)CO4)n2)cc(N2CCN(C)CC2)c1 [compound 25, 6-(5-fluoro-2-(3-isopropoxy-5-(4-methylpiperazin-1-yl)phenylamino)pyrimidin-4-ylamino)-2H-pyrido[3,2-b][1,4]oxazin-3(4H)-one] | < 0.5 | < 10 | < 0.5 | < 0.01
9 | CCCN1C(=O)COc2ccc(Nc3nc(Nc4ccc(N5CCN(C)CC5)c(C(F)(F)F)c4)ncc3F)nc21 [compound 135, 6-(5-fluoro-2-(4-(4-methylpiperazin-1-yl)-3-(trifluoromethyl)phenyl-amino)pyrimidin-4-ylamino)-4-propyl-2H-pyrido[3,2-b][1,4]oxazin-3(4H)-one] | ≥ 10 | – | ≥ 10 | –
10 | CN1CCN(c2cc(Nc3ncc(F)c(Nc4ccc5c(n4)NC(=O)CO5)n3)cc(OC(C)(C)C)c2)CC1 [compound 47, 6-(2-(3-tert-butoxy-5-(4-methylpiperazin-1-yl)phenylamino)-5-fluoro-pyrimidin-4-ylamino)-2H-pyrido[3,2-b][1,4]oxazin-3(4H)-one] | < 0.5 | < 10 | < 0.5 | –
